Laboratory results as given in PubChem BioAssay AID2305 (GlaxoSmithKline (GSK), 2010).

What follows are molecules tested on P. falciparum 3D7 growth, pLDH absorbance (assay: P. falciparum 3D7 growth inhibition, dose response, strain 3D7 (AID 2305)).

Compound	IC50 [nM]
COc1cc2c(cc1N1C[C@@H](C)N[C@@H](C)C1)N(C(=O)c1ccc(-c3ccc(-c4ncc[nH]4)cc3C)cc1)CC2	720
CCCCCN1CCCC(NS(=O)(=O)c2ccc(C(=O)Nc3ccc(C(F)(F)F)cc3)cc2)C1 (stereo not drawn)	1630
O=C(/C=C/c1ccc(Cl)c(Cl)c1)NCCCCCCN1CCCN(C(=O)Nc2ccc(F)c(F)c2)CC1	1240
CC(=O)Nc1ccc(NC(=O)c2cc(-c3cc(Cl)ccc3O)n[nH]2)cc1	180
Cc1ccc2nc3ccccc3c(NCCN3CCN(C)CC3)c2c1	590
Cc1ccccc1C1CCN(C2CCC(NC(=O)c3cc(-c4ccccc4)oc3C)CC2)CC1 (stereo not drawn)	1030
CCCCc1ccc(C(=O)Nc2ccc3nc(N4CCN(CC)CC4)cc(C)c3c2)cc1	910
COCCOc1cc(C)c(C2CCN(CCCCNC(=O)c3ccc(NC(=O)c4ccc(Cl)cc4)cc3)CC2)cc1C	950
COc1ccc(Nc2nccc(N3CCC(NC(=O)c4cc5ccccc5s4)C3)n2)cc1 (stereo not drawn)	760
CNCc1cccc2[nH]c(-c3csc(Cc4cc(Cl)ccc4OCC(C)C)n3)nc12	720
CCNc1cc(C)nc(Nc2ccc(NC(=O)c3ccccc3)cc2)n1	1020
COc1ccccc1NC(=O)Nc1cccc(-c2cccc(-c3nc4c(C)cccc4[nH]3)c2)c1	100
O=C(NC1CCN(Cc2ccccc2)CC1)c1ccc(-c2nc3cc4ccccc4cc3[nH]2)s1	600
Cc1cc(C2CCN(CCCCNC(=O)c3ccc(NC(=O)c4ccc(Cl)cc4)cc3)CC2)c(C)cc1OCc1ccccn1	800
CCOc1ccc(S(=O)(=O)N(C)c2ccc(OCC(=O)Nc3nccs3)cc2)cc1	960
CC(C)NCc1cccc(-c2ccc(-c3nc4ccc(C(F)(F)F)cc4[nH]3)cc2)c1	190
O=C(COc1ccc(Cl)cc1)N1CCC(CN2CCC(c3c[nH]c4ccccc34)CC2)CC1	1100
C[C@@H]1CN(c2cnn(C/C=C/c3ccc(NC(=O)c4ccc5nonc5c4)cc3)c(=O)c2Cl)C[C@H](C)N1	790
O=C(NCC1CCC1)c1cnc(Nc2cccc(Cl)c2)nc1N1CCC1	860
Cc1ccc(O)cc1Nc1ccnc2cc(-c3csc(CNCCN4CCOCC4)n3)ccc12	880
FC(F)(F)c1ccc2nc(-c3ccc(-c4ccc(CNCC5CCCO5)cc4)s3)[nH]c2c1 (stereo not drawn)	160
Fc1ccc2[nH]cc(CCNCc3ccc(-c4cccc(-c5nc6ccccc6[nH]5)c4)cc3)c2c1	170
O=C(c1ccccc1[N+](=O)[O-])N(Cc1ccccc1)c1ccccn1	190
O=C1OC(c2ccccc2)(c2ccccn2)CN1C1CCN(Cc2cccn2-c2ccc(Cl)cc2)CC1 (stereo not drawn)	470
CCNc1cc(C)nc(Nc2ccc(NC(=O)c3c(F)cccc3Cl)cc2)n1	1120

Compound	IC50 [nM]
CCCCc1ccc2[nH]cc(C(=O)OCC)c(=O)c2c1	630
CCNC(=O)c1ccc2c(c1)c(C)c(C)n2Cc1ccc(F)cc1	770
COc1ccc2nccc([C@@H](O)CN3CCC(NCCOc4cccc(C(F)(F)F)c4)CC3)c2c1	160
CC(CNC(=O)[C@H]1CNCCN1C(=O)CCCc1ccccc1)c1ccccc1 (stereo partly drawn)	920
Cc1cc(C(F)(F)F)n2nc(C3CCN(Cc4cc(C)c(O)c(C)c4)C3)cc2n1 (stereo not drawn)	760
CC(C)(C)c1ccc(CN2CCC(NC(=O)c3ccc(-c4cccc(F)c4)s3)CC2)cc1	1090
O=C(Nc1cc(F)cc(F)c1)N1CCOC(CCN2CCC3(CCc4ccccc43)CC2)(c2ccc(Cl)c(Cl)c2)C1 (stereo not drawn)	280
NC(=NCc1ccccc1Cl)NCCc1c[nH]c2ccccc12	110
Cc1ccc2[nH]c3ccccc3c(=O)c2c1	860
Nc1nc(N)c2c(ccc3c2ccn3C2C=CCCC2)n1 (stereo not drawn)	130
CN(C)CCOc1cc(NC(=O)Nc2ccc(-c3ccccc3)cc2Cl)ccc1I	250
O=C(CCc1nc2c(cnn2-c2ccccc2)c(=O)[nH]1)NC1CCSc2ccccc21 (stereo not drawn)	1060
CCCCCCn1c(Sc2ccc(C#N)c([N+](=O)[O-])c2)nnc1-c1ccc(N(C)C)cc1	1070
Cc1cc(CN2CC[C@H](NC(=O)c3ccc(Cl)c(Cl)c3)C2)ccc1OCCCN(C)C	840
CCN(CC)Cc1cccc(-c2cc3c(-c4ccc(C(=O)O)c(C(C)C)c4)ccnc3[nH]2)c1OC	320
CCCCCCP(=O)(COc1ccc(CCN(CC(O)COc2cccc3[nH]c(C(N)=O)cc23)CC(O)COc2cccc3[nH]c(C(N)=O)cc23)cc1)OCCCC (stereo not drawn)	720
CCN(CC)CCN(Cc1ccc(-c2ccc(C(F)(F)F)cc2)cc1)C(=O)Cn1c(SCc2ccc(F)cc2)cc(=O)c2ccccc21	750
O=C(Nc1ccc(OC2CCN(Cc3ccsc3)CC2)c(Cl)c1)c1cccs1	600
CCN(CC)CCN(Cc1ccc(-c2ccc(Br)cc2)cc1)C(=O)Cn1c(CCc2cccc(F)c2F)nc(=O)c2ccccc21	790
COc1cccc2c(NN=Cc3cccc(Cl)c3)ccnc12	840
CC(Nc1ccnc2cc(Cl)ccc12)c1ccc(S(N)(=O)=O)cc1 (stereo not drawn)	930
C[C@@H]1CN(c2cnn(Cc3cccc(NC(=O)Nc4ccc(-c5ccccc5)cc4)c3)c(=O)c2Cl)C[C@H](C)N1	340
CCC(C)(C)C1CCc2nc(N)nc(N)c2C1 (stereo not drawn)	10
C=Cc1cc(NC(=O)N2CCc3cc(OC)c(C(F)(F)F)cc32)cc(-c2cccnc2)c1	700
Cc1cc(NC(=O)CCCN2CCN(c3cccc(Cl)c3Cl)CC2)ccc1N1CCN(C(C)C)CC1	760

Compound	IC50 [nM]
CN(c1ccccc1)c1ccnc(/N=C(\N)Nc2ccc(Cl)cc2)n1	1090
Cc1cc2ccc(-c3cccc(CN)c3)cc2nc1N	760
O=C(/C=C/c1c(Cl)cccc1Cl)NC1CCC(CN2[C@@H]3CC[C@H]2CC(c2c[nH]c4ccccc24)C3)CC1 (stereo partly drawn)	840
Cc1cc(NC(=O)c2ccc(S(=O)(=O)N(Cc3ccccc3)C(C)C)cc2)no1	850
O=C(Nc1ccc(Oc2ccccc2)cc1)N[C@@H](Cc1ccc(O)cc1)C(=O)NC1CCN(Cc2ccc(O)c([N+](=O)[O-])c2)C1 (stereo partly drawn)	1510
NC(=O)C1Cc2ccccc2CN1CC(=O)Nc1ccccc1Sc1ccccc1 (stereo not drawn)	70
NC(=O)c1ccccc1OCC(=O)Nc1cccc(-c2ccc(-c3nc4ccc(C(F)(F)F)cc4[nH]3)cc2)c1	650
O=C1CCCN1CCCNCc1cccc(-c2ccc(-c3nc4ccc(C(F)(F)F)cc4[nH]3)s2)c1	450
Cc1cccc2[nH]c(-c3cccc(-c4cccc(CNCC5CCCO5)c4)c3)nc12 (stereo not drawn)	600
O=C(Nc1cccc(-c2cccc(-c3nc4ccccc4[nH]3)c2)c1)Nc1ccc(Cl)c(Cl)c1	130
CC[C@H](NC(=O)c1ccc(NC(=O)OC(C)(C)C)cc1)C(=O)N[C@@H](CO)C(=O)NCCCCc1ccccc1	830
CN(C)Cc1cccc(-c2ccc(Nc3nccc(NCC(O)c4ccccc4)n3)cc2)c1 (stereo not drawn)	140
CS(=O)(=O)CCOCc1ccc(-c2ccc3ncnc(Nc4ccc(OCc5cccc(F)c5)c(Cl)c4)c3c2)o1	800
O=C(NC(NC(=S)Nc1ccc([N+](=O)[O-])cc1)C(Cl)(Cl)Cl)c1cccc(Cl)c1 (stereo not drawn)	730
O=C(NCc1ccc(Cl)c(Cl)c1)c1ccc(C2CCCN(Cc3ccc4nc[nH]c4c3)C2)cc1 (stereo not drawn)	780
CC(C)(C)c1ccc(C(=O)NC2CCC(CCN3CCc4ccc(S(C)(=O)=O)cc4CC3)CC2)cc1C(F)(F)F (stereo not drawn)	1220
O=C(C=Cc1ccc(-c2nc3ccccc3[nH]2)cc1)NC1CCN(Cc2ccccc2)CC1	740
CCCNC(=O)Nc1ccc(N(C)c2ccnc(NC3CC3)n2)cc1	620
Cc1cc(NN=Cc2ccc(F)cc2)c2ccc(C(F)(F)F)cc2n1	820
Cc1cccc(-c2nn(-c3ccccc3)c3[nH]c(=O)c(CNC4CCCC4)cc23)c1	760
Cc1cc(O)cc2c(C3CCN(CC4CCN(C(=O)/C=C/c5ccc(Cl)c(Cl)c5)CC4)CC3)c[nH]c12	1090
CC1CCN(Cc2c(O)ccc3c(CN4CCC(C)CC4)c(O)ccc23)CC1	130
c1ccc2ncc(CNCCCCCCCCNCc3cnc4ccccc4c3)cc2c1	850
Cc1ccc(C)c(N2CCN(Cc3ccccc3O)CC2)c1	940
CN1C(C)(C)CC(NC(=O)c2ccc(-c3nc4ccc(Cl)cc4[nH]3)cc2)CC1(C)C	990

Compound	IC50 [nM]
Cc1nc(N)nc(N)c1OCCCCOc1ccccc1	50
Cc1ccccc1C1CCN(c2ccc(NC(=O)c3ccc(Cl)nc3)cc2)CC1	1030
Cn1cnc(CCNC(=O)c2cccc(-c3cccc(-c4nc5ccc(C(F)(F)F)cc5[nH]4)c3)c2)c1	700
Cn1cc(C(=O)Nc2cccc(-c3cccc(-c4nc5ccccc5[nH]4)c3)c2)n(C)c1=O	710
Oc1ccc(CCNCCCCNCCc2ccc(Cl)cc2)cc1O	840
COc1cc(-c2nc(-c3ccccc3)c(-c3ccc([N+](=O)[O-])cc3)[nH]2)cc(OC)c1O	830
COc1cccc(C(=O)NCCOc2ccccc2)c1Oc1ccccc1	920
C[C@H](Nc1nc(C(Oc2ccccc2)c2ccccc2)nc2[nH]ncc12)c1ccccc1 (stereo partly drawn)	480
Cc1[nH]c(C)c(-c2ccc(Oc3ccc(F)cc3)cc2)c(=O)c1Cl	50
CC1CCN(C(=O)CSc2nc(-c3ccc(C(C)C)cc3)no2)CC1	1350
Cc1cc2ccc(CNCCc3ccccc3Br)cc2nc1N	510
OC1(c2ccccc2)CCN(Cc2cccc(-c3c[nH]c4nc(NC5CCCC5)ncc34)c2)C1 (stereo not drawn)	910
Cc1cc(C2CCN(CCCCNC(=O)c3ccc(-c4ccc(C(F)(F)F)cc4)cc3)CC2)c(C)cc1OCC#N	1010
OC(CNc1ccnc(Nc2cccc(Cl)c2)n1)c1ccc(C(F)(F)F)cc1 (stereo not drawn)	770
Cc1cc(C)c2[nH]cc(C(=O)O)c(=O)c2c1	880
COc1ccc2nccc([C@@H](O)CN3CCC(NC(=O)/C=C/c4cc(F)cc(Br)c4)CC3)c2c1	170
CCCCNc1ccc(C(=O)NC2CCN(C[C@H](O)c3ccnc4ccc(OC)cc34)CC2)cc1	440
CCCCC(O)c1cc(O)c2c(c1)OC(C)(C)CC2C1=CCN(Cc2ccc3ccccc3c2)CC1 (stereo not drawn)	970
CCCCCCNC(=O)C1Cc2c([nH]c3ccc(F)cc23)C2(CCN(Cc3ccccc3)CC2)N1 (stereo not drawn)	870
CCCCCCN=C(N)c1ccc(OCCCCCOc2ccc(C(N)=NCCCCCC)cc2)cc1	310
Cc1cccc2[nH]c(-c3ccc(-c4cccc(CNCc5cccc(N)c5)c4)s3)nc12	520
Fc1ccc(-c2cc(NCCCn3ccnc3)nc(-c3cccnc3)n2)cc1	970
Cc1c(N)ccc2[nH]c(-c3ccc(N)cc3)nc12	1210
